Consider 19 molecules from US9556179B2 (BRISTOL-MYERS SQUIBB COMPANY, priority 2012, dated 2017).

One may read the IC50 as the midpoint of a concentration-inhibition curve.

One assay concerns the target CK1δ (Homo sapiens (Human), UniProt P48730). Description: CK1δ kinase assay (Caliper LABCHIP electrophoretic separation of fluoresceinated peptide substrate and product). It counts as biochemical. The following applies: 200 pM enzyme, 50 μM ATP, 22 hours at room temperature. The essentials:
(§1)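 Kinase reactions ran 22 h at room temperature, were stopped with EDTA, and phosphorylated product was separated electrophoretically from unphosphorylated fluoresceinated peptide. Compounds were tested at eleven concentrations from 10 mM DMSO stocks. IC50 by non-linear regression.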

Another assay addresses CK1ε (Homo sapiens (Human), UniProt P49674). Description: CK1ε kinase assay (Caliper LABCHIP electrophoretic separation of fluoresceinated peptide substrate and product). Particulars: 200 pM enzyme, 50 μM ATP, 22 hours at room temperature. It counts as biochemical. The essentials:
as §1

Chain of CK1ε (P49674 whole entry): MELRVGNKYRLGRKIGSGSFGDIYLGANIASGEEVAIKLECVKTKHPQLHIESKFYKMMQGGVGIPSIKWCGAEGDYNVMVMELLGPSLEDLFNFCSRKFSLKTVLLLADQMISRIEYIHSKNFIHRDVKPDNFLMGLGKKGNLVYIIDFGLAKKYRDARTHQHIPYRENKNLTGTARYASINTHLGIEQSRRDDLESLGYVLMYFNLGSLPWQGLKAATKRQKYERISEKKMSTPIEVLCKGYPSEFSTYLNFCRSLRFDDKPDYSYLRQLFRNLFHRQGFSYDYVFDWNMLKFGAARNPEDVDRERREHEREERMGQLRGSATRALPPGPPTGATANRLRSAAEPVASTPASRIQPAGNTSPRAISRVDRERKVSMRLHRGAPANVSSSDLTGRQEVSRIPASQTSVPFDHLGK
Chain of CK1δ (P48730 whole entry): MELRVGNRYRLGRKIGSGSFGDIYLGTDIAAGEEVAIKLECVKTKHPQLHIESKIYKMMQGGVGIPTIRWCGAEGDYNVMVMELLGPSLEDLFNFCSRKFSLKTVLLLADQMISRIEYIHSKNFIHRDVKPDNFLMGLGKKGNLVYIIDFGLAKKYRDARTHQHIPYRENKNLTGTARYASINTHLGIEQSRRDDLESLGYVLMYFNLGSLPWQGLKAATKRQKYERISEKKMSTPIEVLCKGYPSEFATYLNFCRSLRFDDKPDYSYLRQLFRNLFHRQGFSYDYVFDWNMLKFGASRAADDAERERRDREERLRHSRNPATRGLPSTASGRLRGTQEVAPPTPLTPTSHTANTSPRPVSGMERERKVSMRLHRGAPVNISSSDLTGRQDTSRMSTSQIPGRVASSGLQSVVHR

In the case of `O=C(Nc1cn2nc(-c3c(-c4ccc(F)cc4)ncn3C3CCN(C(=O)OCC4CC4)CC3)ccc2n1)c1ccnc(F)c1` [Compound 78, cyclopropylmethyl 4-(5-(2-(2-fluoroisonicotinamido)imidazo[1,2-b]pyridazin-6-yl)-4-(4-fluorophenyl)-1H-imidazol-1-yl)piperidine-1-carboxylate], the IC50 on CK1δ turned out to be 0.295 nM; at CK1ε, 2.23 nM.

Regarding `Cc1nc(-c2ccc(F)cc2)c(-c2ccc3nc(NC(=O)c4cncs4)cn3n2)n1C` [Compound 396, N-(6-(4-(4-fluorophenyl)-1,2-dimethyl-1H-imidazol-5-yl)imidazo[1,2-b]pyridazin-2-yl)thiazole-5-carboxamide], the IC50 on CK1δ turned out to be 3.88 nM; against CK1ε it was 4.41 nM.

Regarding `CC(C)(C)COC(=O)N1CCC(n2cnc(-c3ccc(F)cc3)c2-c2ccc3nc(NC(=O)c4ccnc(F)c4)cn3n2)CC1` [Compound 75, neopentyl 4-(5-(2-(2-fluoroisonicotinamido)imidazo[1,2-b]pyridazin-6-yl)-4-(4-fluorophenyl)-1H-imidazol-1-yl)piperidine-1-carboxylate], the IC50 on CK1δ was found to be 1.4 nM; against CK1ε, 3.49 nM.

Regarding `O=C(Nc1cn2nc(-c3c(-c4ccc(F)cc4)ncn3C3CNC3)ccc2n1)c1ccncc1` [Compound 157, N-(6-(1-(azetidin-3-yl)-4-(4-fluorophenyl)-1H-imidazol-5-yl)imidazo[1,2-b]pyridazin-2-yl)isonicotinamide], the IC50 at CK1δ was determined as 0.587 nM; against CK1ε, 9.93 nM.

In the case of `O=C(Nc1cn2nc(-c3c(-c4ccc(F)cc4)ncn3C3CNC3)ccc2n1)c1ccnc(F)c1` [Compound 148, N-(6-(1-(azetidin-3-yl)-4-(4-fluorophenyl)-1H-imidazol-5-yl)imidazo[1,2-b]pyridazin-2-yl)-2-fluoroisonicotinamide], the concentration for half-maximal inhibition (IC50) on CK1δ turned out to be 0.608 nM; against CK1ε it was 9.87 nM.

For the molecule `O=C(Nc1cn2nc(-c3c(-c4ccc(F)cc4)ncn3CCn3cccn3)ccc2n1)c1ccnc(F)c1` [Compound 254, 2-fluoro-N-(6-(4-(4-fluorophenyl)-1-(2-(1H-pyrazol-1-yl)ethyl)-1H-imidazol-5-yl)imidazo[1,2-b]pyridazin-2-yl)isonicotinamide], the IC50 is 1.12 nM at CK1δ and 18.7 nM at CK1ε.

Take `Cc1nc(-c2ccc(F)cc2)c(-c2ccc3nc(NC(=O)c4cocn4)cn3n2)n1C` [Compound 355, N-(6-(4-(4-fluorophenyl)-1,2-dimethyl-1H-imidazol-5-yl)imidazo[1,2-b]pyridazin-2-yl)-1,3-oxazole-4-carboxamide]: the IC50 at CK1δ was 3.8 nM; against CK1ε, 38.7 nM.

As for `O=C(Nc1cn2nc(-c3c(-c4ccc(F)cc4)ncn3-c3ccc(F)cc3)ccc2n1)c1ccnc(N2CCOCC2)c1` [Compound 419, N-(6-(1,4-bis(4-Fluorophenyl)-1H-imidazol-5-yl)imidazo[1,2-b]pyridazin-2-yl)-2-morpholinoisonicotinamide], the values for the IC50 against CK1δ and on CK1ε were 3.1 nM and 35.2 nM, respectively.

Regarding `Cc1nc(-c2ccc(F)cc2)c(-c2ccc3nc(NC(=O)c4ccc(C#N)nc4)cn3n2)n1C` [Compound 374, 6-cyano-N-(6-(4-(4-fluoro-phenyl)-1,2-dimethyl-1H-imidazol-5-yl)imidazo[1,2-b]pyridazin-2-yl)nicotinamide], the IC50 is 0.399 nM at CK1δ and 3.95 nM at CK1ε.

For the molecule `O=C(Nc1cn2nc(-c3c(-c4ccc(F)cc4)nc(C4CC4)n3CC(F)F)ccc2n1)c1ccnc(F)c1` [Compound 285], the IC50 came out at 0.245 nM at CK1δ and 1.22 nM at CK1ε.

With `Cc1nnsc1C(=O)Nc1cn2nc(-c3c(-c4ccc(F)cc4)nc4ccccn34)ccc2n1` [Compound 178, N-(6-(2-(4-fluorophenyl)imidazo[1,2-a]pyridin-3-yl)imidazo[1,2-b]pyridazin-2-yl)-4-methyl-1,2,3-thiadiazole-5-carboxamide], the IC50 at CK1δ came out at 200 nM; at CK1ε, 1520 nM.

Consider `NCC(=O)N1CCC(n2c(C3CC3)nc(-c3ccc(F)cc3)c2-c2ccc3nc(NC(=O)c4cccc(-c5cccnc5)c4)cn3n2)CC1` [Compound 137, N-(6-(1-(1-(2-aminoacetyl)piperidin-4-yl)-2-cyclopropyl-4-(4-fluorophenyl)-1H-imidazol-5-yl)imidazo[1,2-b]pyridazin-2-yl)-3-(pyridin-3-yl)benzamide], for which the IC50 on CK1δ was determined as 0.203 nM; at CK1ε, 5.78 nM.

For `O=C(Nc1cn2nc(-c3c(-c4ccc(F)cc4)ncn3C3CCN(C(=O)c4ccno4)CC3)ccc2n1)c1ccnc(F)c1` [Compound 48, 2-fluoro-N-(6-(4-(4-fluorophenyl)-1-(1-(isoxazole-5-carbonyl)piperidin-4-yl)-1H-imidazol-5-yl)imidazo[1,2-b]pyridazin-2-yl)isonicotinamide], the IC50 on CK1δ stood at 0.22 nM; against CK1ε it was 1.45 nM.

Regarding `O=C(Nc1cn2nc(-c3c(-c4ccc(F)cc4)ncn3CCOCC(F)(F)F)ccc2n1)c1ccnc(F)c1` [Compound 252, 2-fluoro-N-(6-(4-(4-fluorophenyl)-1-(2-(2,2,2-trifluoroethoxy)ethyl)-1H-imidazol-5-yl)imidazo[1,2-b]pyridazin-2-yl)isonicotinamide], the half-maximal inhibitory concentration (IC50) at CK1δ stood at 0.347 nM; on CK1ε it was 2.51 nM.

For `O=C(Nc1cn2nc(-c3c(-c4ccc(F)cc4)ncn3C3CCN(C(=O)c4ccsn4)CC3)ccc2n1)c1ccnc(F)c1` [Compound 50, 2-fluoro-N-(6-(4-(4-fluorophenyl)-1-(1-(isothiazole-3-carbonyl)piperidin-4-yl)-1H-imidazol-5-yl)imidazo[1,2-b]pyridazin-2-yl)isonicotinamide], the IC50 at CK1δ turned out to be 0.278 nM; at CK1ε, 1.1 nM.

Consider `O=C(Nc1cn2nc(-c3c(-c4ccc(F)cc4)ncn3C3CCOCC3)ccc2n1)c1ccncc1` [Compound 434, N-(6-(4-(4-Fluorophenyl)-1-(tetrahydro-2H-pyran-4-yl)-1H-imidazol-5-yl)imidazo[1,2-b]pyridazin-2-yl)isonicotinamide], for which the figures for the IC50 against CK1δ and at CK1ε were 0.3 nM and 1.8 nM, respectively.

Regarding `Cc1nc(-c2ccc(F)cc2)c(-c2ccc3nc(NC(=O)c4cnccn4)cn3n2)n1C` [Compound 388, N-(6-(4-(4-fluorophenyl)-1,2-dimethyl-1H-imidazol-5-yl)imidazo[1,2-b]pyridazin-2-yl)pyrazine-2-carboxamide], the IC50 turned out to be 7.12 nM at CK1δ and 19.4 nM against CK1ε.

`O=C(Nc1cn2nc(-c3c(-c4ccc(F)cc4)ncn3C3CCN(C(=O)CN4CCOCC4)CC3)ccc2n1)c1ccnc(F)c1` [Compound 61, 2-fluoro-N-(6-(4-(4-fluorophenyl)-1-(1-(2-morpholinoacetyl)piperidin-4-yl)-1H-imidazol-5-yl)imidazo[1,2-b]pyridazin-2-yl)isonicotinamide]: the concentration for half-maximal inhibition (IC50) against CK1δ is 0.186 nM; against CK1ε, 1.26 nM.

`O=C(Nc1cn2nc(-c3c(-c4ccc(F)cc4)nc4n3CCCC4)ccc2n1)c1cc(F)nc(F)c1` [Compound 445, 2,6-Difluoro-N-(6-(2-(4-fluorophenyl)-5,6,7,8-tetrahydroimidazo[1,2-a]pyridin-3-yl)imidazo[1,2-b]pyridazin-2-yl)isonicotinamide]: the IC50 on CK1δ is 0.4 nM; against CK1ε it was 4.7 nM.
